{"source": "patent US10138222B2", "about": "“Substituted benzamides as RIPK2 inhibitors” (Boehringer Ingelheim International GmbH, priority 2016, dated 2018)", "data": [{"biological_target": "RIPK2 (Homo sapiens (Human), UniProt O43353)", "sequence (O43353 whole entry)": "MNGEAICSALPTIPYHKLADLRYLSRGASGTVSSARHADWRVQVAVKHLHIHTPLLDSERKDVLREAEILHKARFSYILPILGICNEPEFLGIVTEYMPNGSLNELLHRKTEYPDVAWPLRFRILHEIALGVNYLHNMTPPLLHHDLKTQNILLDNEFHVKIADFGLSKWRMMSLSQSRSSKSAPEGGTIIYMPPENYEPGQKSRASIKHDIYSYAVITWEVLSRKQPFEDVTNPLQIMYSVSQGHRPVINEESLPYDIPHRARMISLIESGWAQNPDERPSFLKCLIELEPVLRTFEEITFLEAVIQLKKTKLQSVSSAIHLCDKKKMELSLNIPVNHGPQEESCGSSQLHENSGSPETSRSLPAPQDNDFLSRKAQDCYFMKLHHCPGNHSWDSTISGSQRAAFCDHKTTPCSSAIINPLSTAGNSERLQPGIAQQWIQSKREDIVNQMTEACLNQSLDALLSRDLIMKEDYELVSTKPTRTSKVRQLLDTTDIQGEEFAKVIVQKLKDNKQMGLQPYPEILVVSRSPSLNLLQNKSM", "assay": "RIPK2 inhibition, ADP-Glo Kinase Assay", "type": "biochemical", "details": "8His-RIPK2 FL enzyme 8 nM, ATP 5 μM, 15 minutes pre-incubation, 60 minutes at 37° C., luminescence", "method": "RIPK2 inhibition for compounds in Table 1 are shown in Table 3 and measured using the following method:\nMaterials: White, 384-well optiplates (cat.no. 6007290) were purchased from PerkinElmer. The V9103X ADP-Glo Kinase Assay Custom (including ultra-pure ATP) was purchased from Promega. 8His-RIPK2 FL was prepared in-house. All other materials were of highest grade commercially available.\nMethod: In a 384-well plate, test compound diluted in assay buffer (1% DMSO final) is mixed with 8His-RIPK2 FL enzyme (final concentration of 8 nM). After 15 minutes of pre-incubation at RT, ATP dissolved in assay buffer is added (final concentration 5 μM). The mixture is incubated for 60 minutes at 37° C. in a humidified incubator. Then, ADP Glo Reagent is added, followed by a 40 minute incubation at rt. Finally, Kinase Detection Reagent is added and the entire mixture is incubated for 40 min at RT. The luminescence signal is measured with an Envision reader to determine the amount of ADP produced. Assay buffer: 25 mM HEPES (4-(2-hydroxyethyl)-1-piperazinethanesulfonic acid), 0.1% BSA (bovine serum albumin), 10 mM MgCl2, 5 mM MnCl2, 50 mM KCl, 0.01% CHAPS (3-[(3-cholamidopropyl)dimethylammonio]-1-propanesulfonate), 10 μM Na3VO4, 1 mM DTT (dithiothreitol), pH 7.5 All plates contain wells with vehicle controls instead of compound (1% DMSO) as reference for the high signal (100% CTL (100% of control), high signal), and wells without enzyme as reference for low signal (0% CTL, low signal). The luminescent signal generated is proportional to the ADP produced and is correlated with enzyme activity. The analysis of the data is performed by the calculation of the percentage of ADP production in the presence of the test compound and RIPK2 as compared to the ADP production in the presence of RIPK2 plus 50 μM Gefitinib. (RLU (relative luminescence units) (sample)−RLU(low control))*100/(RLU(high value)−RLU(low control)) [RLU=relative luminescence units].", "units": {"IC50": "nM"}, "values": [{"smiles": "Cc1ccc(C(=O)NC2CC2)cc1-c1cnn(-c2cncc(NC(=O)NC3CC3)c2)c1", "note": "[Example 108, N-cyclopropyl-3-(1-{5-[(cyclopropylcarbamoyl)amino]pyridin-3-yl}-1H-pyrazol-4-yl)-4-methylbenzamide]", "IC50": 4.4}, {"smiles": "Cc1ccc(C(=O)NC2CC2)cc1-c1cnn(-c2cncc(NC(=O)NC3CCC3)c2)c1", "note": "[Example 109, 3-(1-{5-[(cyclobutylcarbamoyl)amino]pyridin-3-yl}-1H-pyrazol-4-yl)-N-cyclopropyl-4-methylbenzamide]", "IC50": 3.6}, {"smiles": "Cc1ccc(C(=O)NC2CC2)cc1-c1cnn(-c2cncc(NC(=O)NC(C)C)c2)c1", "note": "[Example 110, N-cyclopropyl-4-methyl-3-[1-(5-{[(propan-2-yl)carbamoyl]amino}pyridin-3-yl)-1H-pyrazol-4-yl] benzamide]", "IC50": 3.4}, {"smiles": "CC(=O)Nc1cncc(-n2cc(-c3cc(C(=O)NC4CC4)ccc3C)cn2)c1", "note": "[Example 111, N-cyclopropyl-3-[1-(5-acetamido-pyridin-3-yl)-1H-pyrazol-4-yl]-4-methylbenzamide]", "IC50": 5.3}, {"smiles": "COCC(=O)Nc1cncc(-n2cc(-c3cc(C(=O)NC4CC4)ccc3C)cn2)c1", "note": "[Example 112, N-cyclopropyl-3-{1-[5-(2-methoxyacetamido)pyridin-3-yl]-1H-pyrazol-4-yl}-4-methylbenzamide]", "IC50": 7.8}, {"smiles": "Cc1ccc(C(=O)NC2CC2)cc1-c1cnn(-c2cncc(NC(=O)C(C)C)c2)c1", "note": "[Example 113, N-cyclopropyl-4-methyl-3-{1-[5-(2-methylpropanamido)pyridin-3-yl]-1H-pyrazol-4-yl}benzamide]", "IC50": 3.5}, {"smiles": "Cc1ccc(C(=O)NC2CC2)cc1-c1cnn(-c2cncc(NC(=O)CC(C)C)c2)c1", "note": "[Example 114, N-cyclopropyl-4-methyl-3-{1-[5-(3-methylbutanamido)pyridin-3-yl]-1H-pyrazol-4-yl}benzamide]", "IC50": 2.7}, {"smiles": "Cc1ccc(C(=O)NC2CC2)cc1-c1cnn(-c2cncc(NC(=O)C3CCC3)c2)c1", "note": "[Example 115, 3-[1-(5-cyclobutaneamidopyridin-3-yl)-1H-pyrazol-4-yl]-N-cyclopropyl-4-methylbenzamide]", "IC50": 2.7}, {"smiles": "Cc1ccc(C(=O)NC2CC2)cc1-c1cnn(-c2cncc(NC(=O)CF)c2)c1", "note": "[Example 116, N-cyclopropyl-3-{1-[5-(2-fluoroacetamido)pyridin-3-yl]-1H-pyrazol-4-yl}-4-methylbenzamide]", "IC50": 7.2}, {"smiles": "CCC(=O)Nc1cncc(-n2cc(-c3cc(C(=O)NC4CC4)ccc3C)cn2)c1", "note": "[Example 117, N-cyclopropyl-4-methyl-3-[1-(5-propanamidopyridin-3-yl)-1H-pyrazol-4-yl]benzamide]", "IC50": 3.4}, {"smiles": "Cc1ccc(C(=O)NC2CC2)cc1-c1cnn(-c2cncc(N(C)C)n2)c1", "note": "[Example 118, N-cyclopropyl-3-{1-[6-(dimethylamino)pyrazin-2-yl]-1H-pyrazol-4-yl}-4-methylbenzamide]", "IC50": 110}, {"smiles": "Cc1cncc(-n2cc(-c3cc(C(=O)NC4CC4)ccc3C)cn2)c1", "note": "[Example 119, N-cyclopropyl-4-methyl-3-[1-(5-methylpyridin-3-yl)-1H-pyrazol-4-yl]benzamide]", "IC50": 24}, {"smiles": "Cc1ccc(C(=O)NC2CC2)cc1-c1cnn(-c2cncc(NC(=O)C(C)(C)C)c2)c1", "note": "[Example 121, N-cyclopropyl-3-{1-[5-(2,2-dimethylpropanamido)pyridin-3-yl]-1H-pyrazol-4-yl}-4-methyl-benzamide]", "IC50": 13}, {"smiles": "Cc1ccc(C(=O)NC2CC2)cc1-c1cnn(-c2cncc(NS(C)(=O)=O)c2)c1", "note": "[Example 122, N-cyclopropyl-3-[1-(5-methanesulfonamidopyridin-3-yl)-1H-pyrazol-4-yl]-4-methyl-benzamide]", "IC50": 9.5}, {"smiles": "CN(C)c1cncc(-n2cc(-c3cc(C(=O)NC4CC4)c(F)cc3Cl)cn2)n1", "note": "[Example 123, 4-chloro-N-cyclopropyl-5-{1-[6-(dimethylamino)pyrazin-2-yl]-1H-pyrazol-4-yl}-2-fluorobenzamide]", "IC50": 43}, {"smiles": "CC(=O)N1CC(Oc2cncc(-n3cc(-c4cc(C(=O)NC5CC5)ccc4C)cn3)c2)C1", "note": "[Example 124, 3-(1-{5-[(1-acetylazetidin-3-yl)oxy]pyridin-3-yl}-1H-pyrazol-4-yl)-N-cyclopropyl-4-methylbenzamide]", "IC50": 13}, {"smiles": "Cc1ccc(C(=O)NC2CC2)cc1-c1cnn(-c2cncc([C@H]3CCC(=O)N3C)c2)c1", "note": "[Example 125, N-cyclopropyl-4-methyl-3-(1-{5-[(2R)-1-methyl-5-oxopyrrolidin-2-yl]pyridin-3-yl}-1H-pyrazol-4-yl)benzamide]", "IC50": 130}, {"smiles": "CC(=O)N1CC[C@@H](Oc2cncc(-n3cc(-c4cc(C(=O)NC5CC5)ccc4C)cn3)c2)C1", "note": "[Example 126, 3-[1-(5-{[(3R)-1-acetylpyrrolidin-3-yl]oxy}pyridin-3-yl)-1H-pyrazol-4-yl]-N-cyclopropyl-4-methyl-benzamide]", "IC50": 20}, {"smiles": "COc1cncc(-n2cc(-c3cc(C(=O)NC4CC4)ccc3C)cn2)n1", "note": "[Example 127, N-cyclopropyl-3-[1-(6-methoxy-pyrazin-2-yl)-1H-pyrazol-4-yl]-4-methylbenzamide]", "IC50": 86}, {"smiles": "Cc1ccc(C(=O)NC2CC2)cc1-c1cnn(-c2cncc(C3CCOCC3)n2)c1", "note": "[Example 128, N-cyclopropyl-4-methyl-3-{1-[6-(oxan-4-yl)pyrazin-2-yl]-1H-pyrazol-4-yl}benzamide]", "IC50": 94}, {"smiles": "CC(=O)N1CC[C@H](Oc2cncc(-n3cc(-c4cc(C(=O)NC5CC5)ccc4C)cn3)c2)C1", "note": "[Example 129, 3-[1-(5-{[(3S)-1-acetylpyrrolidin-3-yl]oxy}pyridin-3-yl)-1H-pyrazol-4-yl]-N-cyclopropyl-4-methyl-benzamide]", "IC50": 44}, {"smiles": "Cc1ccc(C(=O)NC2CC2)cc1-c1cnn(-c2cncc(C3(C#N)CC3)c2)c1", "note": "[Example 131, 3-{1-[5-(1-cyanocyclopropyl)pyridin-3-yl]-1H-pyrazol-4-yl}-N-cyclo-propyl-4-methylbenzamide]", "IC50": 11}, {"smiles": "Cc1ccc(C(=O)NC2CC2)cc1-c1cnn(-c2cncc(CN3CCOCC3=O)c2)c1", "note": "[Example 135, N-cyclopropyl-4-methyl-3-(1-{5-[(3-oxomorpholin-4-yl)methyl]pyridin-3-yl}-1H-pyrazol-4-yl)benzamide]", "IC50": 120}, {"smiles": "Cc1ccc(C(=O)NC2CC2)cc1-c1cnn(-c2cncc(C(C)N3CCCCS3(=O)=O)c2)c1", "note": "(centres unmarked) [Example 136, N-cyclopropyl-3-(1-{5-[1-(1,1-dioxo-1λ^6,2-thiazinan-2-yl)ethyl]pyridin-3-yl}-1H-pyrazol-4-yl)-4-methyl-benzamide]", "IC50": 43}, {"smiles": "Cc1ccc(C(=O)NC2CC2)cc1-c1cnn(-c2cncc(C3(O)CCOCC3)c2)c1", "note": "[Example 137, N-cyclopropyl-3-{1-[5-(4-hydroxy-oxan-4-yl)pyridin-3-yl]-1H-pyrazol-4-yl}-4-methylbenzamide]", "IC50": 120}, {"smiles": "Cc1ccc(C(=O)NC2CC2)cc1-c1cnn(-c2cncc(C3(O)CCOC3)c2)c1", "note": "(centres unmarked) [Example 138, N-cyclopropyl-3-{1-[5-(3-hydroxy-oxolan-3-yl)pyridin-3-yl]-1H-pyrazol-4-yl}-4-methylbenzamide]", "IC50": 25}, {"smiles": "Cc1ccc(C(=O)NC2CC2)cc1-c1cnn(-c2cncc(C(C)N3CCCC3=O)c2)c1", "note": "(centres unmarked) [Example 140, N-cyclopropyl-4-methyl-3-(1-{5-[1-(2-oxopyrrolidin-1-yl)ethyl]pyridin-3-yl}-1H-pyrazol-4-yl)benzamide]", "IC50": 38}, {"smiles": "CNc1cncc(-n2cc(-c3cc(C(=O)NC4CC4)ccc3C)cn2)c1", "note": "[Example 141, N-cyclopropyl-4-methyl-3-{1-[5-(methylamino)pyridin-3-yl]-1H-pyrazol-4-yl}benzamide]", "IC50": 2.6}, {"smiles": "Cc1ccc(C(=O)NC2CC2)cc1-c1cnn(-c2cncc(NC(=O)NC3CCOC3)c2)c1", "note": "(centres unmarked) [Example 142, N-cyclopropyl-4-methyl-3-[1-(5-{[(oxolan-3-yl)carbamoyl]amino}pyridin-3-yl)-1H-pyrazol-4-yl] benzamide]", "IC50": 3.2}, {"smiles": "COCCC(=O)Nc1cncc(-n2cc(-c3cc(C(=O)NC4CC4)ccc3C)cn2)c1", "note": "[Example 143, N-cyclopropyl-3-{1-[5-(3-methoxypropanamido)pyridin-3-yl]-1H-pyrazol-4-yl}-4-methylbenzamide]", "IC50": 6.1}, {"smiles": "Cc1ccc(C(=O)NC2CC2)cc1-c1cnn(-c2cncc(NC(=O)C3CC3)c2)c1", "note": "[Example 144, 3-[1-(5-cyclopropaneamidopyridin-3-yl)-1H-pyrazol-4-yl]-N-cyclo-propyl-4-methylbenzamide]", "IC50": 2.9}, {"smiles": "Cc1ccc(C(=O)NC2CC2)cc1-c1cnn(-c2cncc(OC3CCOC3)c2)c1", "note": "(centres unmarked) [Example 145, N-cyclopropyl-4-methyl-3-{1-[5-(oxolan-3-yloxy)pyridin-3-yl]-1H-pyrazol-4-yl}benzamide]", "IC50": 4.7}]}]}
